Assay results taken from patent publication US20240016762A1, “DUAL ANALGESIC/ANTI-INFLAMMATORY COMPOSITIONS COMPRISING CB2 RECEPTOR AGONISTS, COMBINATIONS, AND METHODS OF USE THEREOF” (Altus Formulation lnc., priority 2020, published 2024).

How the values were obtained:
[1] = tested on: corneal cauterization and capsaicin challenge (corneal pain); conditions: cited from earlier work; for ED50: Thapa et al (2018)
[2] = target: CB2 receptor (Homo sapiens, UniProt P34972); conditions: Smoum et al. (2015); cited from earlier work
CB2 receptor, sequence (P34972 whole entry): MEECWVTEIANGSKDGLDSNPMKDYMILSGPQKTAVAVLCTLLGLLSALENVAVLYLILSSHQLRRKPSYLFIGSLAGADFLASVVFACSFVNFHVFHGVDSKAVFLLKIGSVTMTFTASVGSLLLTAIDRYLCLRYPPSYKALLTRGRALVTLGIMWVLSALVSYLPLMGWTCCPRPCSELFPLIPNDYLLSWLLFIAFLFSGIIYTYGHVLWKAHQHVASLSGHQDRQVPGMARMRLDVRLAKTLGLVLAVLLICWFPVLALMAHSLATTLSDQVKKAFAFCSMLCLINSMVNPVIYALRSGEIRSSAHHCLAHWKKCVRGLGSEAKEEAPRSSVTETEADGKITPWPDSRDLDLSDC

[3] = tested on: plantar incision in the hind paw (post-operative incisional pain); assay: Rat postoperative incisional (plantar incision) pain model, von Frey withdrawal threshold; conditions: iv; for ED50: Rattus norvegicus, read-out: ED50 (median effective dose)
Method: The model developed was based on that described by Labuda et al. (supra). […] All test articles were administered intravenously via the tail vein as a single bolus.
Male Sprague Dawley rats (Charles River, St-Constant, Qc, Canada), were purchased and housed in auto-ventilated cages in a climate-controlled room on a 12-hour light/dark cycle. The animals were allowed free access to food pellets and water and weighed 200-225 g at the time of the testing.
Post-operative incisional pain was induced via a 1 cm plantar incision in the hind paw. Briefly, under deep anesthesia with isoflurane the plantar aspect of the hind paw was cleaned and sterilized using a 10% povidone-iodine solution after which a 1 cm longitudinal incision was made with a number 11 blade. The incision penetrated through the skin and fascia of the plantar aspect of the foot. The plantaris muscle was also elevated and incised longitudinally, the muscle origin remaining intact. After hemostatis with gentle pressure, the skin was closed with 2 mattress sutures of 5-0 nylon and the wound site covered with an antibacterial ointment. The rats were then placed in clear Plexiglas cages with plastic grid floors (8×8 mm) and allowed to acclimate.
The pain response was evaluated using the von Frey mechanical stimulation test employing von Frey filaments applied vertically to an area adjacent to the wound. […] The resistance to bending (reflective of the applied pressure) of the filament causing a withdrawal response was then recorded as the withdrawal threshold. […] After each filament application, animals were given a 5 minute test-free period after which the test was repeated the lowest force required for a withdrawal response from the 2 tests being recorded as the withdrawal threshold (WT). […]
The paw withdrawal threshold was again measured at 0.25, 1, 2, 3, 4, 5, 6, 7, 8 hours post treatment administration animal responses being plotted as withdrawal response/time curves for each dose given as before.

SMILES | ED50 [1] | ED50 [3] | further results
CCCCCCC(C)(C)c1cc(OC)c([C@@H]2C=C(CO)[C@@H]3C[C@H]2C3(C)C)c(OC)c1 [HU-308] |  |  | Pain score ([1]; 1.5% solution in soybean oil, Thapa et al. (2018)): 17; Analgesic effect ([1]; doses lower than 1.5%, Thapa et al. (2018)): failed to generate an analgesic effect
CCCCCCC(C)(C)c1cc(OC)c([C@@H]2C=C(CO)[C@@H]3C[C@H]2C3(C)C)c(OC)c1 (single isomer, unassigned) [Batch E2] |  |  | Affinity for CB2 receptor relative to E1 [2]: lower affinity for CB2 receptor than E1
CCCCCc1cc(O)c2c(c1)OC(C)(C)[C@@H]1CC=C(C)C[C@@H]21 [A8 THC] | 1% |  | 
C=C(C)[C@@H]1CCC(C)=C[C@H]1c1c(O)cc(CCCCC)cc1O [CBD] | 5% |  | 
Cc1ccc(-c2cc(C(F)(F)F)nn2-c2ccc(S(N)(=O)=O)cc2)cc1 [celecoxib] |  | 22.3 mg/kg | 
O=C(c1ccccc1)c1ccc2n1CCC2C(=O)O (centres unmarked) [Ketorolac, ketorolac] |  | 23.1 mg/kg | Dose/response relationship of AUC0.25-8 hr [3]: clear dose response effect
